# Columns and labels:
# [1] = test system: participants with SSc-RP; experiment: SHAQ - Visual Analog Scale - Breathing Problems; type: in vivo, human; set-up: Visual Analog Scale-Breathing Problems, In Clinic Visit (Day 12), Mean / Visual Analog Scale-Breathing Problems, In Clinic Visit (Day 12), Median / SHAQ Visual Analogue Scale - Breathing Problems, In-Clinic Visit (Day 12), Mean / SHAQ Visual Analogue Scale - Breathing Problems, In-Clinic Visit (Day 12), Median / SHAQ Visual Analogue Scale - Breathing Problems, Change from Baseline, Median: scale not given here
# Description: (§1) The standard, validated, patient reported outcome measures tool for SSc patients, the Scleroderma Health Assessment Questionnaire (SHAQ), will be used to assess the participant qualify of life. Details are attached in the Appendix. The participant quality of life will be scored, and a disability index calculated for each questionnaire completed by the patient at Screening and each in-clinic visit. The absolute change in participant quality of life from baseline to the end of each dosing period will be calculated similar to frequency data as before.
# (§2) The standard, validated, patient reported outcome measures tool for SSc patients, the SHAQ, was collected at the time points specified in the study schedules (FIG. 2 and FIGS. 4A and 4B) to assess the participant's quality of life. The SHAQ included a Raynaud's VAS that will also be reported separately.
# [2] = test system: participants with SSc-RP; experiment: SHAQ - Visual Analog Scale - Finger Ulcers; type: in vivo, human
# Description: as §1, §2
# [3] = Modified ITT Population-Part A, dose cilnidipine 10 mg, tadalafil 5 mg, alone or combined as labelled
# [4] = Tadalafil 5 mg, SSc patients, PP, Part A
# [5] = Tadalafil 5 mg (N = 5), Day 12, PP Population, Part A
compound,measurement,setting,value
CN1CC(=O)N2[C@H](c3ccc4c(c3)OCO4)c3[nH]c4ccccc4c3C[C@@H]2C1=O [Tadalafil],"Visual Analog Scale-Breathing Problems, Change from Baseline, Mean","[1]; Modified ITT Population-Part A, Day 12, dose cilnidipine 10 mg, tadalafil 5 mg, alone or combined as labelled",0.500
same,"Visual Analog Scale-Breathing Problems, In Clinic Visit (Day 12), Mean",[1]; [3],4.300
same,"Visual Analog Scale-Breathing Problems, In Clinic Visit (Day 12), Median",[1]; [3],4.000
same,"SHAQ VAS Breathing Problems, Change from Baseline, Max",[1]; [4],2.80
same,"SHAQ VAS Breathing Problems, Change from Baseline, Mean",[1]; [4],0.500
same,"SHAQ VAS Breathing Problems, Change from Baseline, Median",[1]; [4],1.050
same,"SHAQ VAS Breathing Problems, Change from Baseline, Min",[1]; [4],"−2.90,"
same,"SHAQ VAS Breathing Problems, Change from Baseline, Q1",[1]; [4],"−1.450,"
same,"SHAQ VAS Breathing Problems, Change from Baseline, Q3",[1]; [4],2.450
same,"SHAQ VAS Breathing Problems, Day 12, Max",[1]; [4],9.20
same,"SHAQ VAS Breathing Problems, Day 12, Mean",[1]; [4],4.300
same,"SHAQ VAS Breathing Problems, Day 12, Median",[1]; [4],4.000
same,"SHAQ VAS Breathing Problems, Day 12, Min",[1]; [4],"0.00,"
same,"SHAQ VAS Breathing Problems, Day 12, Q1",[1]; [4],"0.100,"
same,"SHAQ VAS Breathing Problems, Day 12, Q3",[1]; [4],8.500
same,"SHAQ VAS Breathing Problems, Percent Change from Baseline, Max",[1]; [4],56.0
same,"SHAQ VAS Breathing Problems, Percent Change from Baseline, Mean",[1]; [4],−2.66
same,"SHAQ VAS Breathing Problems, Percent Change from Baseline, Median",[1]; [4],29.58
same,"SHAQ VAS Breathing Problems, Percent Change from Baseline, Min",[1]; [4],"−93.5,"
same,"SHAQ VAS Breathing Problems, Percent Change from Baseline, Q1",[1]; [4],"−93.55,"
same,"SHAQ VAS Breathing Problems, Percent Change from Baseline, Q3",[1]; [4],56.00
same,"SHAQ Visual Analogue Scale - Finger Ulcers, Change from Baseline, Mean",[2]; [5],0.250
same,"SHAQ Visual Analogue Scale - Finger Ulcers, Change from Baseline, Median",[2]; [5],0.000
same,"SHAQ Visual Analogue Scale - Finger Ulcers, Percent Change from Baseline, Mean",[2]; [5],6.10%
same,"SHAQ Visual Analogue Scale - Finger Ulcers, Percent Change from Baseline, Median",[2]; [5],6.10%
same,VAS Finger Ulcers Change from Baseline Max,[2]; tadalafil 5 mg,1.00
same,VAS Finger Ulcers Change from Baseline Mean,[2]; tadalafil 5 mg,0.250
same,VAS Finger Ulcers Change from Baseline Median,[2]; tadalafil 5 mg,0.000
same,VAS Finger Ulcers Change from Baseline Min,[2]; tadalafil 5 mg,0.00
same,VAS Finger Ulcers Change from Baseline Q1,[2]; tadalafil 5 mg,0.000
same,VAS Finger Ulcers Change from Baseline Q3,[2]; tadalafil 5 mg,0.500
same,VAS Finger Ulcers Day 12 Max,[2]; tadalafil 5 mg,9.20
same,VAS Finger Ulcers Day 12 Median,[2]; tadalafil 5 mg,0.050
same,VAS Finger Ulcers Day 12 Min,[2]; tadalafil 5 mg,0.00
same,VAS Finger Ulcers Day 12 Q1,[2]; tadalafil 5 mg,0.000
same,VAS Finger Ulcers Day 12 Q3,[2]; tadalafil 5 mg,4.650
same,VAS Finger Ulcers Percent Change from Baseline Max,[2]; tadalafil 5 mg,12.2%
same,VAS Finger Ulcers Percent Change from Baseline Mean,[2]; tadalafil 5 mg,6.10%
same,VAS Finger Ulcers Percent Change from Baseline Median,[2]; tadalafil 5 mg,6.10%
same,VAS Finger Ulcers Percent Change from Baseline Min,[2]; tadalafil 5 mg,0.0%
same,VAS Finger Ulcers Percent Change from Baseline Q1,[2]; tadalafil 5 mg,0.00%
same,VAS Finger Ulcers Percent Change from Baseline Q3,[2]; tadalafil 5 mg,12.20%
